Reference: US3953293A, “Process for the preparation of xylostasin” (Takeda Chemical Industries, Ltd., priority 1972, dated 1976)
In brackets after ≈: the same amount, converted by molar mass.

Experiments:
[1] = Acute toxicity by intravenous injection into mice; details: mouse, in vivo, free base
Description: The acute toxicity of xylostasin was examined by intravenous injection into mice. The LD50 value for the free base was approximately 1,000 mg/kg.

[2] = system: Mycobacterium avium (Neomycin-resistant); assay: Minimal inhibitory concentration by the agar dilution method; assay type: cell-based; details: read-out: Minimal inhibitory concentration
From the text: (§1) Minimal inhibitory concentrations by the
(§2) The media used for the test are bouillon agar for the common bacteria and glycerin bouillon agar for acid fast bacteria.

[3] = system: Escherichia coli IFO 3044; assay: as above; assay type: cell-based; details: IFO3044, bouillon agar
From the text: as §1, §2

[4] = system: Staphylococcus aureus FDA 209P; assay: as above; assay type: cell-based; details: FDA209P, bouillon agar
From the text: as §1, §2

[5] = system: Mycobacterium smegmatis IFO 3083; assay: as above; assay type: cell-based; details: Mycolicibacterium smegmatis, IFO3083, glycerin bouillon agar
From the text: as §1, §2

[6] = system: Mycobacterium avium (Streptomycin-resistant); assay: as above; assay type: cell-based; details: read-out: Minimal inhibitory concentration
From the text: as §1, §2

[7] = system: Proteus vulgaris IFO 3045; assay: as above; assay type: cell-based; details: IFO3045, bouillon agar
From the text: as §1, §2

[8] = system: Mycobacterium phlei IFO 3158; assay: as above; assay type: cell-based; details: Mycolicibacterium phlei, IFO3158, glycerin bouillon agar
From the text: as §1, §2

Bacillus cereus IFO 3466 = assay: as above; assay type: cell-based; details: IFO3466, bouillon agar
From the text: as §1, §2

[9] = system: Bacillus subtilis PCI 219; assay: as above; assay type: cell-based; details: PCI219, bouillon agar
From the text: as §1, §2

[10] = system: Pseudomonas aeruginosa IFO 3080; assay: as above; assay type: cell-based; details: IFO3080, bouillon agar
From the text: as §1, §2

Sarcina lutea IFO 3232 = assay: as above; assay type: cell-based; details: Micrococcus luteus, IFO3232, bouillon agar
From the text: as §1, §2

Bacillus brevis IFO 3331 = assay: as above; assay type: cell-based; details: Brevibacillus brevis, IFO3331, bouillon agar
From the text: as §1, §2

Shigella flexneri EW-10 = assay: as above; assay type: cell-based; details: EW10, bouillon agar
From the text: as §1, §2

[11] = system: Mycobacterium avium IFO 3153; assay: as above; assay type: cell-based; details: IFO3153, glycerin bouillon agar
From the text: as §1, §2

Escherichia coli 0-111 = assay: Anti-infection test in mice; assay type: in vivo; details: mice infected with Escherichia coli 0-111; single subcutaneous dose of 10 mg/kg immediately after infection

SMILES: NC[C@H]1O[C@H](O[C@H]2[C@H](O[C@@H]3O[C@H](CO)[C@H](O)[C@H]3O)[C@@H](O)[C@H](N)C[C@@H]2N)[C@H](N)[C@@H](O)[C@@H]1O [xylostasin, O-β-D-xylofuranosyl-(1 → 5)-O-[α-2,6-diamino-2,6-dideoxy-D-glucopyranosyl-(1 → 4)]-2-deoxystreptamine]
- LD50 [1]: ~1000 mg/kg
- MIC [2]: > 50 µg/mL
- MIC [3]: 6.25 µg/mL (≈ 13.8 µM)
- MIC [4]: 6.25 µg/mL (≈ 13.8 µM)
- MIC [5]: 1.6 µg/mL (≈ 3.52 µM)
- MIC [6]: 3.12 µg/mL (≈ 6.88 µM)
- MIC [7]: 50 µg/mL (≈ 110 µM)
- MIC [8]: 1.6 µg/mL (≈ 3.52 µM)
- MIC (Bacillus cereus IFO 3466): 50 µg/mL (≈ 110 µM)
- MIC [9]: 3.12 µg/mL (≈ 6.88 µM)
- MIC [10]: > 50 µg/mL
- MIC (Sarcina lutea IFO 3232): 25 µg/mL (≈ 55 µM)
- MIC (Bacillus brevis IFO 3331): 25 µg/mL (≈ 55 µM)
- MIC (Shigella flexneri EW-10): 12.5 µg/mL (≈ 27.5 µM)
- MIC [11]: 1.6 µg/mL (≈ 3.52 µM)
- death of the mice (Escherichia coli 0-111): completely prevented
